PMC10489644, “In Vitro Evaluation of the Potential for Drug Interactions by Salidroside” (Nutrients, 2023)
pIC50: −log10 of the molar value.

Experiments:
[1] = target: T1, CYP1A2 (Homo sapiens, UniProt P05177); assay: CYP direct inhibition in human liver microsomes; assay type: in vitro ADME; conditions: probe phenacetin, mean of N = 2
T1 construct: Mixed human liver microsomes were purchased from BioreclamationIVT; tissue BioreclamationIVT; host or cells: mixed-donor pool of human liver microsomes (Lot ZZQ)
T1 sequence (P05177 1-516): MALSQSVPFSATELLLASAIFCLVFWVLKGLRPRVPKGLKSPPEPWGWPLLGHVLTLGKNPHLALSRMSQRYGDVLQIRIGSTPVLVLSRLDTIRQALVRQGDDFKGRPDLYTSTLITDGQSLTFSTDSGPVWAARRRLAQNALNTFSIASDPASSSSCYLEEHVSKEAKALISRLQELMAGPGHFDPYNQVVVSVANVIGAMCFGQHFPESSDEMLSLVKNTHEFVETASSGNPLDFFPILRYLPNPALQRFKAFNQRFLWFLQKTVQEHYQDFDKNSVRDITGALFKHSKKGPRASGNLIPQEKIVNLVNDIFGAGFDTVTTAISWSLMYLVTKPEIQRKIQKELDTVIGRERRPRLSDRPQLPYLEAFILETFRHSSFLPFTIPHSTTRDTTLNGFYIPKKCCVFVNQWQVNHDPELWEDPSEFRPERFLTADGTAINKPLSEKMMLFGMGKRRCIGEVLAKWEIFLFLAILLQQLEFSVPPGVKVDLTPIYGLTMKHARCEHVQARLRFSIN

[2] = target: T2, CYP2D6 (Homo sapiens, UniProt P10635); assay: biochemical
[3] = in vitro; conditions: human, plasma, pH 7.4
[4] = test system: CYP3A4/5; conditions: microsomes
[5] = target: T3, CYP2B6 (Homo sapiens, UniProt P20813); conditions: microsomes
T3 sequence (P20813 1-491): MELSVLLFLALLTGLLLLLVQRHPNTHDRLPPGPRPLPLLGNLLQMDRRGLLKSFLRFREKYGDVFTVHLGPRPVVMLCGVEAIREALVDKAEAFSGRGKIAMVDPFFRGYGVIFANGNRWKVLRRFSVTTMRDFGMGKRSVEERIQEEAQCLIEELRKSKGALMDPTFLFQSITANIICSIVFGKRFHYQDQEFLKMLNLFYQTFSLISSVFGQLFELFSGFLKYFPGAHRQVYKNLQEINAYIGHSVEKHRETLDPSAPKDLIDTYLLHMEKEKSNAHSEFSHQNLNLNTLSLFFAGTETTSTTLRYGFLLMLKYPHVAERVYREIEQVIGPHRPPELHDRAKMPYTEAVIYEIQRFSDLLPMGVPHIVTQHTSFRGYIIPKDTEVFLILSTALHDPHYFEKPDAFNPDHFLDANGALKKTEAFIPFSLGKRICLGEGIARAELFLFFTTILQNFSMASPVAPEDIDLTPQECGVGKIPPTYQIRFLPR

[6] = test system: CYP3A4; assay: in vitro; conditions: human, Mean Fold Induction
[7] = test system: MAO-B; parameters: method as in PMID 19168123; conditions: isolated compound at 10 µM; cited from earlier work
[8] = test system: CYP1A2; assay: in vitro; conditions: human; for % of Positive Control / Mean Enzyme Activity: 48 h
Protocol: (§1) The sandwich medium was removed, and the hepatocytes were treated with incubation solutions containing salidroside (1, 5, 10, and 30 µM), vehicle (0.1% DMSO), or positive inducers in triplicate for 24 h after the cultures were established. The incubation solution was aspirated and replaced with incubation solution containing the same concentrations of salidroside, vehicle, or positive inducers for an additional 24 h. The total treatment period was 48 h. After the treatment period of 48 h, the incubation solution was aspirated. Hepatocytes were washed twice with pre-warmed HBSS containing 10 mM HEPES (HBSS I) and then the remaining solution was aspirated. Hepatocytes were washed once with pre-warmed HBSS I and incubated with 140 μL of RLT (lysis buffer from RNeasy 96 Kit) supplemented with 1% β-mercaptoethanol. Plates were then stored at −70 °C in a freezer until RNA analysis. Before RNA extraction, the frozen plate was thawed, and cell lysates were transferred to 96-well plates. RNA isolation was performed using a QIAcube RNA extraction system. Reverse transcription was performed to obtain cDNA. Quantification of the selective genes by real-time quantitative polymerase chain reaction (qPCR) was performed with TaqMan universal PCR Master Mix on the Bio-rad CFX384 TouchTM Real-Time PCR System. The relative change in the mRNA level of the selected target genes induced by each test compound was expressed in relation to the vehicle control sample, and fold changes in gene expression were determined by the ΔΔCt method.
(§2) Enzyme activity (%) = PAR with compound/PAR vehicle × 100.

[9] = test system: CYP2B6; assay: in vitro; conditions: human; for % of Positive Control / Mean Enzyme Activity: 48 h
Protocol: as §1, §2

[10] = target: T4, CYP2C19 (Homo sapiens, UniProt P33261); assay: Time-dependent inhibition (IC50 shift) in human liver microsomes
[11] = test system: rat CYP enzymes (probe drug cocktail); parameters: method as in PMID 29796228; conditions: salidroside 30 mg/kg/day, eight daily doses, day 8; cited from earlier work
[12] = target: T2, CYP2D6; conditions: microsomes
[13] = test system: CYP3A4/5; assay: in vitro; conditions: human, microsomes
[14] = target: T4, CYP2C19; conditions: microsomes
[15] = Estimation of maximum human plasma concentration
Protocol: An estimation of the maximum plasma concentration of salidroside in humans was made from the pharmacokinetics in rats after oral dosing and the recommended human daily dose of salidroside of 60 mg (two 30 mg capsules). Male Sprague–Dawley rats were dosed either with IV or orally at 12 mg/kg (N = 6/group). Salidroside was moderately cleared (21 mL/min/kg) and well absorbed orally.

T2 sequence (P10635 whole entry): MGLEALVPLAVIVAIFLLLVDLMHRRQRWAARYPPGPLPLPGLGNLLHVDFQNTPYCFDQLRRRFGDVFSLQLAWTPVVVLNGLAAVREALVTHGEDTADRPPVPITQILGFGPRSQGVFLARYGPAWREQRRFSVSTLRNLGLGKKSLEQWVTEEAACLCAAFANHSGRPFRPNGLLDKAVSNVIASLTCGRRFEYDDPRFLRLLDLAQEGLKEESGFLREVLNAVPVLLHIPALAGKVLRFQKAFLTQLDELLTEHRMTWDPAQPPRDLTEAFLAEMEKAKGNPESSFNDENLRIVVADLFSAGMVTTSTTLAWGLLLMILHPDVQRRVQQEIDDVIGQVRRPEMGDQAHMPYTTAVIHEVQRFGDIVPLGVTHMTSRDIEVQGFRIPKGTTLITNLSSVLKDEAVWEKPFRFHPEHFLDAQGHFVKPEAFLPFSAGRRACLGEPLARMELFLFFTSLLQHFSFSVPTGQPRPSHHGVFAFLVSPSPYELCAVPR
T4 sequence (P33261 whole entry): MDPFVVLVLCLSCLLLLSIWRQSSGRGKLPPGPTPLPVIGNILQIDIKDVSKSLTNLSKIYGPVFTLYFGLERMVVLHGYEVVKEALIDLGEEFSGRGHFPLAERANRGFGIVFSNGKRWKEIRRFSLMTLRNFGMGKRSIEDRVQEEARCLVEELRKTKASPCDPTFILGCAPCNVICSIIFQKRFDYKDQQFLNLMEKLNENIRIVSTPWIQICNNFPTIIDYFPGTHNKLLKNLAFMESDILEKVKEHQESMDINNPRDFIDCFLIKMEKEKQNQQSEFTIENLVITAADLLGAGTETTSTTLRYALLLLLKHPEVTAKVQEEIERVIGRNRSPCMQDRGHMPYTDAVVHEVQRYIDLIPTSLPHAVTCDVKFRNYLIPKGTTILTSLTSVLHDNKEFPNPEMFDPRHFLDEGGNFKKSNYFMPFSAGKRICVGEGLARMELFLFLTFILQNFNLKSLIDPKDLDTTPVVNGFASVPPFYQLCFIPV

OC[C@H]1O[C@@H](OCCc2ccc(O)cc2)[C@H](O)[C@@H](O)[C@@H]1O [Salidroside]
pIC50 [1]: < 4.30 | pIC50 [2]: < 4.30 | fraction unbound at 5 h, 5 µM [3]: 0.985 | IC50 Shift [4]: no shift | IC50 Shift [5]: no shift | fold induction at 48 h, 1 µM [6]: 0.7 | inhibition of MAO-B [7]: 35.8% | fold induction at 48 h, 0.1 µM [8]: 0.8 | fold induction at 48 h, 1 µM [8]: 0.66 | fold induction at 48 h, 10 µM [8]: 0.76 | % of Positive Control ([8]; 0.1 µM): −8% | Mean Enzyme Activity ([8]; 0.1 µM): 2.18 pmol/10^6 cells/min | % of Positive Control ([8]; 1 µM): −13% | Mean Enzyme Activity ([8]; 1 µM): 1.81 pmol/10^6 cells/min | % of Positive Control ([8]; 10 µM): −9% | Mean Enzyme Activity ([8]; 10 µM): 2.08 pmol/10^6 cells/min | fold induction at 48 h, 0.1 µM [9]: 0.87 | fold induction at 48 h, 1 µM [9]: 0.58 | fold induction at 48 h, 10 µM [9]: 0.87 | % of Positive Control ([9]; 0.1 µM): −3% | Mean Enzyme Activity ([9]; 0.1 µM): 0.77 pmol/10^6 cells/min | % of Positive Control ([9]; 1 µM): −9% | Mean Enzyme Activity ([9]; 1 µM): 0.51 pmol/10^6 cells/min | % of Positive Control ([9]; 10 µM): −3% | Mean Enzyme Activity ([9]; 10 µM): 0.76 pmol/10^6 cells/min | pIC50 [10]: < 4.30 | decrease of losartan AUC0-∞ [11]: ≈ 2 fold | decrease of midazolam AUC0-∞ [11]: ≈ 2 fold | IC50 Shift [12]: no shift | IC50 at 10 min [13]: > 50 µM | IC50 Shift [14]: no shift | Cmax ([15]; 60 mg PO daily (~1 mg/kg), scaled from rat, read-out: predicted human total Cmax (predicted plasma concentration)): < 2000 nM | predicted human unbound Cmax ([15]; 60 mg daily, Cmax x fu,plasma): ~ 1.18 μM
